Assay results taken from US7273863B1, “Benzophenones as inhibitors of reverse transcriptase” (SmithKline Beecham Corporation, priority 1999, dated 2007).
Read-outs that look alike come from different tables or passages of the source.

Tests used:
NEV-R = assay: MT4 cell assay, antiviral HIV activity (propidium iodide); type: cell-based; conditions: Human immunodeficiency virus 1, MT4, read-out: IC50 (nM) Range
[1] = system: isogenic HIV-1 RT mutant virus K103N/Y181C; assay: HeLa cell assay (HIV-LTR β-galactosidase reporter); type: cell-based; conditions: Human immunodeficiency virus 1, HeLa, read-out: IC50 (nM) Range
Method: (§1) The HeLa cell assay was performed according to a modification of Kimpton J. and Emerman M., Detection of replication-competent and pseudotyped human immunodeficiency virus with a sensitive cell line on the basis of activation of an integrated β-galactosidase gene, J. Virol. 66:2232-2239 (1992), in which HIV-1 infection is detected by the activation of an HIV-LTR driven β-galactosidase reporter that is integrated into the genome of a CD4^+ HeLa cell line. Quantitation of β-galactosidase is achieved by measuring the activation of a chemiluminescent substrate (Tropix). The concentration of each compound required to inhibit 50% (IC50) of the HIV-1 induced β-galactosidase signal, relative to untreated controls, was determined for each isogenic, recombinant virus.
(§2) HeLa-CD4-LTR-β-gal cells were obtained from the NIH AIDS Research and Reference Reagent Program. Cells were propagated in DMEM containing 10% fetal bovine serum, 0.2 mg/ml geneticin and 0.1 mg/ml hygromycin B. Cells were routinely split by trypsinization when confluency reached 80% (approximately every 2 to 3 days).
(§3) DNA encoding the HIV-1 reverse transcriptase was subcloned from a M13 phage into a general shuttle vector, pBCSK+, as a ˜1.65 kbp EcoRI/HindIII ended DNA fragment. The HIV DNA insert of the resulting plasmid, pRT2, was completely sequenced on both strands prior to use in site directed mutagenesis experiments. Specific amino acid replacements were made using Stratagene Quick Change reagents and mutagenic oligonucleotides from Oligos. Following mutagenesis, the entire mutant RT coding sequence was verified by sequencing both DNA strands.
(§4) Mutant HIV-1 strains were isolated by a modified Recombinant Virus Assay (Kellam P. and Larder B., Recombinant virus assay: a rapid, phenotypic assay for assessment of drug susceptibility of human immunodeficiency virus type 1 isolates, Antimicrobial Agents and Chemotherapy, 38:23-30, 1994). 1×10^7 Jurkat T-cells (maintained in RPMI containing 10% fetal bovine serum, split 1:5 every 5 to 6 days) were co-transfected with EcoRI/HindIII digested mutant RT plasmid and Bst EII-digested HIV-1HXB2ΔRT DNA in the presence of DMRIE-C transfection reagent (Gibco) according to supplier's recommended protocol. Each mutant RT coding sequence was crossed into the RT-deleted HIV-1 viral DNA backbone by in vivo homologous recombination. Transfected cell cultures were expanded and monitored until syncitia formation and CPE were extensive. Virus was harvested by clear spin of the culture supernatants and frozen at −80 C as primary stock. Recombinant progeny virus was sequenced in the RT region to confirm the mutant genotype. Virus stocks were further expanded by infection of Jurkat cells, harvested and stored as frozen aliquots. Stocks were titered in HeLa MAGI cells for assay.
(§5) The HIV-1HXB2 mutants were titered in the HeLa MAGI assay system to determine the relative light units (RLU) per ml, a measure of infectivity relevant for this assay system. Virus stocks were diluted in a 2-fold series into DMEM containing 10% fetal bovine serum plus 20 ug/ml DEAE-dextran and assayed as described in the Experimental Protocol section, below.
(§6) 96-well microtiter plate(s) (Costar #3598) were seeded with 3×10^3 HeLa-CD4-LTR-β-gal in 100 μl DMEM containing 10% fetal bovine serum. Plates were placed in a 37° C., 5% CO2 humidified incubator overnight. The following day, mutant virus stocks were thawed in a room temperature water bath and diluted into DMEM containing 10% fetal bovine serum and 20 μg/ml DEAE-dextran to achieve an input of 1500 to 2000 RLU/ml. All media was removed with an 8 channel manifold aspirator and 35 μl (50 to 70 total RLUs) of diluted virus was added to each well for virus adsorption. Plates were placed in a 37° C., 5% CO2 humidified incubator for 1.5 to 2 hours.
(§7) Compound titration plates were prepared at 1.35× final concentration during the virus adsorption period. […]

[2] = system: isogenic HIV-1 RT mutant virus Y181C; assay: HeLa cell assay (HIV-LTR β-galactosidase reporter); type: cell-based; conditions: Human immunodeficiency virus 1, HeLa, read-out: IC50 (nM) Range
Method: as §1, §2, §3, §4, §5, §6, §7

[3] = system: isogenic HIV-1 RT mutant virus K103N; assay: HeLa cell assay (HIV-LTR β-galactosidase reporter); type: cell-based; conditions: Human immunodeficiency virus 1, HeLa, read-out: IC50 (nM) Range
Method: as §1, §2, §3, §4, §5, §6, §7

WTRVA = assay: HeLa cell assay (HIV-LTR β-galactosidase reporter); type: cell-based, HIV-1; conditions: Human immunodeficiency virus 1, Virus Type WTRVA, read-out: IC50 (nM) Range
Method: as §1, §2, §3, §4, §5, §6, §7

HIV-1 (strain IIIB) = assay: MT4 cell assay, antiviral HIV activity (propidium iodide); type: cell-based; conditions: Human immunodeficiency virus 1, IIIB
Method: Antiviral HIV activity and compound-induced cytotoxicity were measured in parallel by means of a propidium iodide based procedure in the human T-cell lymphotropic virus transformed cell line MT4. Aliquots of the test compounds were serially diluted in medium (RPMI 1640, 10% fetal calf serum (FCS), and gentamycin) in 96-well plates (Costar 3598) using a Cetus Pro/Pette. Exponentially growing MT4 cells were harvested and centrifuged at 1000 rpm for 10 min in a Jouan centrifuge (model CR 4 12). Cell pellets were resuspended in fresh medium (RPMI 1640, 20% FCS, 20% IL-2, and gentamycin) to a density of 5×10^5 cells/ml. Cell aliquots were infected by the addition of HIV-1 (strain IIIB) diluted to give a viral multiplicity of infection of 100×TCID50. A similar cell aliquot was diluted with medium to provide a mock-infected control. Cell infection was allowed to proceed for 1 hr at 37° C. in a tissue culture incubator with humidified 5% CO2 atmosphere. After the 1 hr incubation the virus/cell suspensions were diluted 6-fold with fresh medium, and 125 μl of the cell suspension was added to each well of the plate containing pre-diluted compound. Plates were then placed in a tissue culture incubator with humidified 5% CO2 for 5 days. At the end of the incubation period, 27 μl of 5% Nonidet-40 was added to each well of the incubation plate. After thorough mixing with a Costar multitip pipetter, 60 μl of the mixture was transferred to filter-bottomed 96-well plates. The plates were analyzed in an automated assay instrument (Screen Machine, Idexx Laboratories). The control and standard used was 3′-azido-3′-deoxythymidine tested over a concentration range of 0.01 to 1 μM in every assay. […] The assay-makes use of a propidium iodide dye to estimate the DNA content of each well.
The antiviral effect of a test compound is reported as an IC50, i.e. the inhibitory concentration that would produce a 50% decrease in the HIV-induced cytopathic effect. This effect is measured by the amount of test compound required to restore 50% of the cell growth of HIV-infected MT4 cells, compared to uninfected MT4 cell controls. IC50 was calculated by RoboSage, Automated Curve Fitting Program, version 5.00, 10 Jul. 1995.
For each assay plate, the results (relative fluorescence units, rfU) of wells containing uninfected cells or infected cells with no compound were averaged, respectively. For measurements of compound-induced cytotoxicty, results from wells containing various compound concentrations and uninfected cells were compared to the average of uninfected cells without compound treatment. Percent of cells remaining is determined by the following formula: Percent of cells remaining=(compound−treated uninfected cells, rfU/untreated uninfected cells)×100.
A level of percent of cells remaining of 79% or less indicates a significant level of direct compound-induced cytotoxicity for the compound at that concentration. When this condition occurs the results from the compound-treated infected wells at this concentration are not included in the calculation of IC50.
For measurements of compound antiviral activity, results from wells containing various compound concentrations and infected cells are compared to the average of uninfected and infected cells without compound treatment. Percent inhibition of virus is determined by the following formula: Percent inhibition of virus=(1−((ave. untreated uninfected cells−treated infected cells)/(ave. untreated uninfected cells−ave. untreated infected cells)))×100

[4] = system: isogenic HIV-1 RT mutant virus V106A/Y181C; assay: HeLa cell assay (HIV-LTR β-galactosidase reporter); type: cell-based; conditions: Human immunodeficiency virus 1, HeLa, read-out: IC50 (nM) Range
Method: as §1, §2, §3, §4, §5, §6, §7

[5] = system: isogenic HIV-1 RT mutant virus V106I; assay: HeLa cell assay (HIV-LTR β-galactosidase reporter); type: cell-based; conditions: Human immunodeficiency virus 1, HeLa, read-out: IC50 (nM) Range
Method: as §1, §2, §3, §4, §5, §6, §7

[6] = system: isogenic HIV-1 RT mutant virus V106I/Y181C; assay: HeLa cell assay (HIV-LTR β-galactosidase reporter); type: cell-based; conditions: Human immunodeficiency virus 1, HeLa, read-out: IC50 (nM) Range
Method: as §1, §2, §3, §4, §5, §6, §7

HIV-2 = assay: MT4 cell assay, antiviral HIV activity (propidium iodide); type: cell-based; conditions: Human immunodeficiency virus 2, Virus Type HIV-2, read-out: IC50 (nM) Range
[7] = system: isogenic HIV-1 RT mutant virus V106A; assay: HeLa cell assay (HIV-LTR β-galactosidase reporter); type: cell-based; conditions: Human immunodeficiency virus 1, HeLa, read-out: IC50 (nM) Range
Method: as §1, §2, §3, §4, §5, §6, §7

[8] = Virus Type HIV-1, Assay MT4, read-out: IC50 (nM) Range

Structure (SMILES)	IC50 (NEV-R)	IC50 [1]	IC50 [2]	IC50 [3]	IC50 (WTRVA)	IC50 (HIV-1 (strain IIIB); [8])	other results
CS(=O)(=O)Nc1ccc(NC(=O)COc2ccc(Cl)cc2C(=O)c2ccccc2)cc1 [Compound 338]	11 to 100 nM	101 to 1000 nM	11 to 100 nM	11 to 100 nM	< 10 nM	< 10 nM	
O=C(COc1ccc(Cl)cc1C(=O)c1ccccc1)Nc1ccc2cn[nH]c2c1 [Compound 387]	11 to 100 nM	11 to 100 nM	11 to 100 nM	< 10 nM	< 10 nM	< 10 nM	
Cc1cc(N2CC[S+]([O-])CC2)ccc1NC(=O)COc1ccc(Cl)cc1C(=O)c1nccs1 [Compound 8]	101 to 1000 nM					11 to 100 nM	
O=C(COc1ccc(Cl)cc1C(=O)c1nccs1)Nc1ccccc1 [Compound 1]	1000 to 3000 nM					101 to 1000 nM	
Cc1cn([C@H]2C[C@H](N=[N+]=[N-])[C@@H](CO)O2)c(=O)[nH]c1=O [3′-azido-3′-deoxythymidine, reference compound]							IC50 (HIV-1 (strain IIIB); control and standard tested in every MT4 assay, 0.01 to 1 μM, read-out: expected range of IC50 values): 40 to 120 nM
O=C(COc1ccc(Cl)cc1C(=O)c1cc(F)cc(F)c1)Nc1ccc(Cl)nc1 [Compound 275]							melting point: 198 to 200 °C
Cc1cc(Cl)cc(C(=O)c2cc(Cl)ccc2OCC(=O)Nc2ccc(S(N)(=O)=O)cc2C)c1 [Compound 483]	< 10 nM		101 to 1000 nM	101 to 1000 nM	11 to 100 nM	11 to 100 nM	IC50 [4]: 101 to 1000 nM; IC50 [5]: < 10 nM; IC50 [6]: 11 to 100 nM
COc1ccc(NC(=O)COc2ccc(Cl)cc2C(=O)c2cc(F)cc(F)c2)cn1 [Compound 274]							melting point: 185 to 187 °C
O=C(COc1ccc(Cl)cc1C(=O)c1nccs1)Nc1ccc2[nH]ncc2c1 [Compound 5]	101 to 1000 nM					11 to 100 nM	
Cc1cc(S(N)(=O)=O)ccc1NC(=O)COc1ccc(Cl)cc1C(=O)c1cc(Cl)cc(Cl)c1 [Compound 79]	< 10 nM	< 10 nM		< 10 nM		< 10 nM	IC50 (HIV-2): 1000 to 3000 nM
O=C(COc1ccc(Cl)cc1C(=O)c1ccco1)Nc1ccc2cn[nH]c2c1 [Compound 435]	11 to 100 nM	101 to 1000 nM	11 to 100 nM	< 10 nM	< 10 nM	< 10 nM	
O=C(COc1ccc(Cl)cc1C(=O)c1cc(F)cc(F)c1)Nc1ccc2c(c1)CS(=O)(=O)C2 [Compound 277]							melting point: 197 to 199 °C
O=C(c1cc(F)cc(F)c1)c1cc(Cl)ccc1OCC(=O)N1CCc2ccccc21 [Compound 276]							melting point: 158 to 160 °C
Cc1cc(S(N)(=O)=O)ccc1NC(=O)COc1ccc(Cl)cc1C(=O)c1cc(C#N)cc(C#N)c1 [Compound 601]	< 10 nM		< 10 nM	< 10 nM	< 10 nM	< 10 nM	IC50 [7]: < 10 nM
O=C(COc1ccc(Cl)cc1C(=O)c1cc2ccccc2o1)Nc1ccccc1 [Compound 9]	101 to 1000 nM					11 to 100 nM	
Cc1cc(N2CC[S+]([O-])CC2)ccc1NC(=O)COc1ccc(Cl)cc1C(=O)c1cccs1 [Compound 122]	11 to 100 nM	1000 to 3000 nM	101 to 1000 nM	11 to 100 nM	11 to 100 nM	< 10 nM	
Cc1cc(OCCCN2CCOCC2)ccc1NC(=O)COc1ccc(Cl)cc1C(=O)c1cccs1 [Compound 120]	11 to 100 nM	101 to 1000 nM	11 to 100 nM	11 to 100 nM	11 to 100 nM	11 to 100 nM	
O=C(COc1ccc(Cl)cc1C(=O)c1ccccc1)Nc1ccc(-n2cncn2)cc1 [Compound 103]	101 to 1000 nM			11 to 100 nM		11 to 100 nM	
